Source: article PMC5346982, “Antimalarial Properties of Simplified Kalihinol Analogues” (ACS Medicinal Chemistry Letters, 2017)
Where “and” joins values, the source holds several entries; their conditions need not be identical. Equal entries are not always repeated. Where two headings read alike, the source gives them in different places.

Tests used:
[1] = system: P. falciparum W2; conditions: drug-resistant W2 strain; Figure 1; cited from earlier work
[2] = Microsomal stability assay, human liver microsomes; format: in vitro ADME; conditions: pH 7.4
Experimental: Reference compound Ketanserin
Sample size Duplicates (n=2)
Bioanalytical method LC-MS/MS
Microsomal Liver Weight per Hepatic
Species Protein Kilogram of Body Scaling Factora Blood Flow
per Gram of Liver Weight (mL/min/kg)
Test Article Species Percent Remaining (%) T1/2 Clint
1. Historic data of ketanserin:
Detection method UPLC-MS/MS-29(API6500+)
Internal standard (s) Osalmid, imipramine
MS conditions Positive ion, ESI
Mobile phase A: 0.025%FA/1mM NH4OAc/H2O
2. Reference compouds(Ketanserin) and test compounds spiking solution: […]

[3] = in vitro; conditions: mouse, microsomes, pH 7.4
[4] = microsomes; cited from earlier work
[5] = microsomes; cited from earlier work; remark: listed apart in the source
[6] = system: FCR-3 Plasmodium falciparum; set-up: method as in doi:10.1016/S0040-4020(98)00818-7; conditions: chloroquine-resistant FCR-3 strain; cited from earlier work
[7] = system: P. falciparum 3D7; experiment: SYBR Green based parasite proliferation assay, drug-sensitive 3D7 strain; format: cell-based, Plasmodium falciparum
[8] = system: P. falciparum Dd2; experiment: SYBR Green based parasite proliferation assay, chloroquine-resistant Dd2 strain; format: cell-based, Plasmodium falciparum
[9] = system: P. falciparum HB3; conditions: Wood group, cited from earlier work
[10] = system: P. falciparum Dd2; conditions: Wood group, cited from earlier work
[11] = drug-sensitive 3D7 strain, 72 h incubation, n = 3, read-out: IC50
[12] = drug-resistant Dd2 strain, 72 h incubation, n = 3, read-out: IC50

## 7,20-diisocyanoadociane [compound 4]
[1]
  IC50: 0.013 µM

## O=C(c1ccc(F)cc1)C1CCN(CCn2c(=O)[nH]c3ccccc3c2=O)CC1 [ketanserin]
[2]; human, microsomes
  CLint scaled at 1 µM: 2.4 L/h/kg
  remaining at 5 min, 1 µM: 88.4%
  remaining at 0.25 h, 1 µM: 77%
  remaining at 0.5 h, 1 µM: 62.5%
  remaining at 0.75 h, 1 µM: 47.3%
[2]; human liver microsomes 0.5 mg/mL, 1 µM, 37°C
  half-life at 1 µM: 43.4 min
[3]
  CLint scaled at 1 µM: 16 L/h/kg
  half-life at 1 µM: 20.4 min
  remaining at 0 h, 1 µM: 100%
  remaining at 5 min, 1 µM: 79.9%
  remaining at 0.25 h, 1 µM: 55.5%
  remaining at 0.5 h, 1 µM: 32.9%
  remaining at 0.75 h, 1 µM: 21.7%
[4]
  T1/2 (Human), historic data: 39.69 ± 6.36 min
[5]
  T1/2 (Mouse), historic data: 18.27 ± 3.89 min

## kalihinol A [compound 1]
[6]
  IC50: 0.0012 µM

## CCN(CC)CCCC(C)Nc1ccnc2cc(Cl)ccc12 (stereo not shown) [Chloroquine]
[7]; Plasmodium falciparum, 3D7, read-out: Chloroquine IC50 [µM], 3D7 strain, antimalarial standard run alongside each compound
  IC50: 0.0063 µM
[7]; read-out: Chloroquine IC50, 3D7 strain, antimalarial standard run alongside each compound
  IC50: 0.0052 µM and 0.0066 µM and 0.0059 µM and 0.0091 µM and 0.0089 µM and 0.0058 µM and 0.0061 µM
[8]; Plasmodium falciparum, DD2, read-out: Chloroquine IC50 [µM], Dd2 strain, antimalarial standard run alongside each compound
  IC50: 0.0275 µM
[8]; read-out: Chloroquine IC50, Dd2 strain, antimalarial standard run alongside each compound
  IC50: 0.0322 µM and 0.0337 µM and 0.0497 µM and 0.0521 µM

## 10-isocyano-4-cadinene [(±)-15]
[7]; 3D7 strain
  IC50: 0.1631 mg/L
[7]; [11]
  IC50: 0.705 µM
[8]; Dd2 strain
  IC50: 0.057 mg/L
[8]; [12]
  IC50: 0.247 µM
[9]; HB3 (chloroquine-sensitive)
  IC50: 2.2 µM
[10]; Dd2 (chloroquine-resistant)
  IC50: 2.2 µM

## 6-hydroxy-kalihinene [compound 3]
[6]
  IC50: 0.08 µM

## [C-]#[N+]C1C2C(C(C)C)CCC(C)([N+]#[C-])C2CCC1(C)O (racemic) [(±)-22]
[9]; HB3
  IC50: 0.08 µM
[10]; Dd2
  IC50: 0.08 µM

## kalihinol B [compound 2]
[7]; 3D7 strain
  IC50: 0.0033 mg/L
[7]; [11]
  IC50: 0.0084 µM
[8]; Dd2 strain
  IC50: 0.0018 mg/L
[8]; [12]
  IC50: 0.0046 µM
